Experimental data: ChEMBL document CHEMBL4118240, “'Tethering' fragment-based drug discovery to identify inhibitors of the essential respiratory membrane protein type II NADH dehydrogenase” (Bioorg Med Chem Lett, 2018)

Legend:
[1] = Inhibition of C-terminal His-tagged Caldalkalibacillus thermarum TA2.A1 NDH2 R382C mutant preincubated for 1 hr followed by NADH addition measured after 8 mins
[2] = Inhibition of C-terminal His-tagged Caldalkalibacillus thermarum TA2.A1 NDH2 R347C mutant preincubated for 1 hr followed by NADH addition measured after 8 mins
[3] = Inhibition of wild type Caldalkalibacillus thermarum TA2.A1 NDH2 preincubated for 1 hr followed by NADH addition measured after 8 mins
[4] = tested on: Caldalkalibacillus thermarum TA2.A1; test: Selectivity ratio of IC50 for wild type Caldalkalibacillus thermarum TA2.A1 NDH2 to IC50 for C-terminal His-tagged Caldalkalibacillus thermarum TA2.A1 NDH2 R347C mutant
[5] = tested on: Caldalkalibacillus thermarum TA2.A1; test: Selectivity ratio of IC50 for wild type Caldalkalibacillus thermarum TA2.A1 NDH2 to IC50 for C-terminal His-tagged Caldalkalibacillus thermarum TA2.A1 NDH2 R382C mutant

Row | Compound | IC50 [1] | IC50 [2] | IC50 [3] | Ratio IC50 [4] | Ratio IC50 [5]
1 | CN1CCN(CCCN2c3ccccc3Sc3ccc(C(F)(F)F)cc32)CC1 [TRIFLUOPERAZINE] |  |  | 50 µM |  | 
2 | CN(C)CCSSCCNC(=O)c1c(N)cccc1Cl | 33.5 µM | 60.8 µM | 38.1 µM | 0.8 | 0.8
3 | CN(C)CCSSCCNC(=O)c1cccc2cc[nH]c12 | 32.6 µM | 110 µM | 61.9 µM | 0.9 | 0.9
4 | CN(C)CCSSCCn1cc(-c2ccc(N(C)C)cc2)nn1 | 24 µM | 56.8 µM | 147 µM | 3.6 | 3.6
5 | CN(C)CCSSCCNC(=O)CCC(=O)c1ccccn1 | 3.2 µM | 5.9 µM | 42.2 µM | 9.3 | 9.3
6 | CN(C)CCSSCCCNC(=O)c1cccc(N(C)C)c1 | 11.5 µM | 14.5 µM | 36 µM | 2.8 | 2.8

Other lines, results leading:

Row | IC50 [1] | IC50 [2] | IC50 [3] | Ratio IC50 [4] | Ratio IC50 [5] | Compound
7 | 7 µM | 12.9 µM | 12.8 µM | 1.3 | 1.3 | CN(C)CCSSCCNC(=O)C(CC(=O)c1ccccc1)c1cc2ccccc2n1C (stereo unspecified)
8 | 18.6 µM | 9.9 µM | 52 µM | 3.7 | 3.7 | NCCSSCCNC(=O)C1CCN(C(=O)c2ccc3ncsc3c2)CC1
9 | 6.3 µM | 5.9 µM | 5.6 µM | 0.9 | 0.9 | CN(C)CCSSCCNC(=O)c1ccc(C#Cc2ccccc2)o1
10 | 13 µM | 21.9 µM | 11.3 µM | 0.6 | 0.6 | CN(C)CCSSCCNC(=O)[C@H]1CCCN(C(=O)c2cc3cccc(O)c3cc2O)C1
11 | 26.9 µM | 26.5 µM | 80.3 µM | 3 | 3 | CN(C)CCSSCCNC(=O)[C@H]1CCCN(C(=O)c2ccc(-n3cccc3)cc2)C1
